Measured values from the supplement of paper PMC11208160.

Experiment: recombinant barcode read abundance after kanamycin selection (control-corrected) (log10(CPM+1)); higher = more efficient recombination; sequences stand for … in AGTGCAGAGAAAATCGGCCAGTTTTCTCTGCCTGCAGTCCGCATGCCGT…AGATTTATGCAGCGGACTGCCTTTCTCCCAAAGTGATAAACCGGACAGTATCATGGACCGGTTTTCCCGGTAATCCGTATTTGCAAGGTTGGTTTCACT; site = the 11-nt target
Procedure, shortened: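 Reported as log10(CPM+1), each value stands for recombination efficiency. That efficiency is the averaged, control-corrected counts per million of barcodes found at recombinant junctions. Cells from a pooled E. coli library pairing targets with IS621 bridge RNA target-binding loops were plated twice on chloramphenicol/ampicillin LB agar (control) and twice on chloramphenicol/ampicillin/kanamycin with 0.1 mM IPTG.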
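Note: IS621 recombinase and bridge RNA in Escherichia coli cells.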

Row | Sequence | recombinant barcode read abundance (log10)
1 | GATGATACTTGGGTTCTAACCTGTTGCGT (site GTTTATACTAC) | 0.0738
2 | GATGCCACTTGGGTTCTAACCTGTTGCCT (site GATCCCACTAG) | 0.182
3 | GATGCCACTTGGGTTCTAACCTGTTGCCT (site GATGCCACTAG) | 1.53
4 | GATGGTACTTGGGTTCTAACCTGTTGCAT (site ACGCACTCTCG) | 0.0471
5 | GATGGTACTTGGGTTCTAACCTGTTGCAT (site GATGGTACTAT) | 1.46
6 | GATGTATCTTGGGTTCTAACCTGTTGCCT (site GAGGTAGCTAG) | 0.0384
7 | GATGTATCTTGGGTTCTAACCTGTTGCCT (site GATGTATCTAG) | 1.09
8 | GATTATTCTTGGGTTCTAACCTGTTGCCT (site GAATATTCTAG) | 0.0621
9 | GATTATTCTTGGGTTCTAACCTGTTGCCT (site GACTATTCTAG) | 0.0521
10 | GATTATTCTTGGGTTCTAACCTGTTGCCT (site GAGTATTCTAG) | 0.138
11 | GATTATTCTTGGGTTCTAACCTGTTGCCT (site GATTATTCTAG) | 0
12 | GATTCGACTTGGGTTCTAACCTGTTGCGT (site CTGGACCCTCG) | 0.0133
13 | GATTCGACTTGGGTTCTAACCTGTTGCGT (site GATTCGACTAC) | 1.02
14 | GATTCTCCTTGGGTTCTAACCTGTTGCAT (site GATTCTCCTAA) | 0.246
15 | GATTCTCCTTGGGTTCTAACCTGTTGCAT (site GATTCTCCTAC) | 0.143
16 | GATTCTCCTTGGGTTCTAACCTGTTGCAT (site GATTCTCCTAG) | 0.0815
17 | GATTCTCCTTGGGTTCTAACCTGTTGCAT (site GATTCTCCTAT) | 0.197
18 | GATTCTTCTTGGGTTCTAACCTGTTGCCT (site GATTCTTCTAG) | 0.1
19 | GATTCTTCTTGGGTTCTAACCTGTTGCCT (site GCTTCTTCTAG) | 0.024
20 | GATTCTTCTTGGGTTCTAACCTGTTGCCT (site GGTTCTTCTAG) | 0.232
21 | GATTCTTCTTGGGTTCTAACCTGTTGCCT (site GTTTCTTCTAG) | 0
22 | GATTGGACTTGGGTTCTAACCTGTTGCTT (site AATTGGACTAA) | 0.38

Row | Sequence | recombinant barcode read abundance (log10)
23 | GATTGGACTTGGGTTCTAACCTGTTGCTT (site CATTGGACTAA) | 0.421
24 | GATTGGACTTGGGTTCTAACCTGTTGCTT (site GATTGGACTAA) | 0.661
25 | GATTGGACTTGGGTTCTAACCTGTTGCTT (site TATTGGACTAA) | 0.128
26 | GCAAAGCCTTGGGTTCTAACCTGTTGCCT (site GCAAAGCCTAG) | 1.18
27 | GCAAAGCCTTGGGTTCTAACCTGTTGCCT (site GCACAGACTAG) | 0.195
28 | GCAAGGACTTGGGTTCTAACCTGTTGCAG (site GCAAGGACTCT) | 2.6
29 | GCAAGGACTTGGGTTCTAACCTGTTGCAG (site GCACGGACTCT) | 0.165
30 | GCAAGGACTTGGGTTCTAACCTGTTGCAG (site GCAGGGACTCT) | 0.76
31 | GCAAGGACTTGGGTTCTAACCTGTTGCAG (site GCATGGACTCT) | 0.587
32 | GCAAGGCCTTGGGTTCTAACCTGTTGCCT (site ACAAGGCCTAG) | 0.0435
33 | GCAAGGCCTTGGGTTCTAACCTGTTGCCT (site CCAAGGCCTAG) | 0.721
34 | GCAAGGCCTTGGGTTCTAACCTGTTGCCT (site GCAAGGCCTAG) | 0.418
35 | GCAAGGCCTTGGGTTCTAACCTGTTGCCT (site TCAAGGCCTAG) | 0.0143
36 | GCAATTACTTGGGTTCTAACCTGTTGCTT (site GCAATTACTAA) | 0.0238
37 | GCAATTACTTGGGTTCTAACCTGTTGCTT (site TGGGGCCCTCG) | 0.078
38 | GCACCACCTTGGGTTCTAACCTGTTGCCT (site GCACAACCTAG) | 0.0145
39 | GCACCACCTTGGGTTCTAACCTGTTGCCT (site GCACCACCTAG) | 1.06
40 | GCACCACCTTGGGTTCTAACCTGTTGCCT (site GCACGACCTAG) | 0.178
41 | GCACCACCTTGGGTTCTAACCTGTTGCCT (site GCACTACCTAG) | 0.127
42 | GCACCGCCTTGGGTTCTAACCTGTTGCCT (site ACACCGCCTAG) | 0.667
43 | GCACCGCCTTGGGTTCTAACCTGTTGCCT (site CCACCGCCTAG) | 0.0991
